Experimental findings from ChEMBL document CHEMBL1135268, “Design, synthesis and in vitro evaluation of potent, novel, small molecule inhibitors of plasminogen activator inhibitor-1” (Bioorg Med Chem Lett, 2002) are described below.

T1 sequence (P05121 whole entry): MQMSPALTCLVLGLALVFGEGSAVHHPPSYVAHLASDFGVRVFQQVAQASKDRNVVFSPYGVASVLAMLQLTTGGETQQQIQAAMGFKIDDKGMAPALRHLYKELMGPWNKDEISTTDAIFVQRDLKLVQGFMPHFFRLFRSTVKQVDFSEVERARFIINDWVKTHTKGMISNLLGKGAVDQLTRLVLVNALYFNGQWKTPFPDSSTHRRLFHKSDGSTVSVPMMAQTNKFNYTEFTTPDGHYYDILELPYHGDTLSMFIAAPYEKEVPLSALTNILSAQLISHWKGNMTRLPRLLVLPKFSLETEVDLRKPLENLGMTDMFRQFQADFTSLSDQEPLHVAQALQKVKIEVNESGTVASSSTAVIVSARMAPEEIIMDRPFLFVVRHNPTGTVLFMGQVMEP

The first assay addresses T1, Plasminogen activator inhibitor 1 (Homo sapiens, UniProt P05121). Briefly: Inhibitory activity against human plasminogen activator inhibitor-1 (PAI-1) evaluated by chromogenic assay.
Turning to `O=C(Nc1ccc(OCCCCCCCn2cnnn2)cc1)c1c(O)c2cc(-c3cc4ccccc4s3)ccc2[nH]c1=O`, the IC50 amounted to 1010 nM. Same read-out and setting: for `O=C(O)CCCCCCCOc1ccc(NC(=O)c2c(O)c3cc(-c4cc5ccccc5s4)ccc3[nH]c2=O)cc1` the value was 500 nM. Same read-out and setting: for `O=C(O)CCCCCCCOc1ccc(/C=c2/[nH]c(=O)/c(=C/c3ccc(NC(=O)c4cccs4)cc3)[nH]c2=O)cc1` the value was 200 nM; for `O=C(O)CCCCCCCOc1ccc(NC(=O)c2c(O)c3cccc(-c4cccc5ccccc45)c3[nH]c2=O)cc1`, more than 50000 nM; for `O=C(O)CCCCCCCOc1ccc(NC(=O)C2=C(O)CN(Cc3ccccc3)C2=O)cc1`, more than 50000 nM. `O=C(O)CCCCCCCOc1ccc(NC(=O)C2=C(O)C(c3ccccc3)NC2=O)cc1` (stereo not drawn): inhibition was half-maximal at 49000 nM (IC50).

Turning to `O=C(O)CCCCCCCOc1ccc(NC(=O)C2=C(O)C(Cc3ccc(O)cc3)NC2=O)cc1` (stereo not drawn), the IC50 is more than 50000 nM. Same read-out and setting: for `COc1ccc(-c2cccc3c(O)c(C(=O)Nc4ccc(OCCCCCCCC(=O)O)cc4)c(=O)[nH]c23)cc1` the value was 30000 nM; for `Nc1ccc2nc(O)c(C(=O)Nc3ccc(OCCCCCCCC(=O)O)cc3)c(O)c2c1`, more than 20000 nM.

`O=C(O)CCCCCCCOc1ccc(NC(=O)c2c(O)nc3ccc(I)cc3c2O)cc1` registered an IC50 of 2200 nM.

`Cc1ccc(N2CC(O)=C(C(=O)Nc3ccc(OCCCCCCCn4cnnn4)cc3)C2=O)cc1` yielded an IC50 of 890 nM. Same read-out and setting: then `CC1C(O)=C(C(=O)Nc2ccc(OCCCCCCCC(=O)O)cc2)C(=O)N1c1ccccc1` (stereo not drawn), with more than 50000 nM. In turn, `O=C(O)CCCCCCCOc1ccc(NC(=O)c2c(O)nc3ccc(Cl)cc3c2O)cc1` had an IC50 of 1950 nM. `COc1ccccc1N1CC(O)=C(C(=O)Nc2ccc(OCCCCCCCC(=O)O)cc2)C1=O` registered an IC50 of more than 50000 nM. In turn, `O=C(O)CCCCCCCOc1ccc(NC(=O)c2c(O)c3ccc(-c4cc5ccccc5s4)cc3[nH]c2=O)cc1` displayed an IC50 of 300 nM. In turn, `O=C(O)CCCCCCCOc1ccc(NC(=O)c2c(O)c3ccccc3[nH]c2=O)cc1` gave an IC50 of 1850 nM. On the same count and under the same terms, for `O=C(O)CCCCCCCOc1ccc(NC(=O)C2=C(O)CN(c3ccc(Cl)cc3)C2=O)cc1` the value was 5000 nM. As to `N#Cc1ccc2c(O)c(C(=O)Nc3ccc(OCCCCCCCC(=O)O)cc3)c(=O)[nH]c2c1`, the concentration for half-maximal inhibition (IC50) was found to be 900 nM.

As for `O=C(O)CCCCCCCOc1ccc(NC(=O)C2=C(O)CN(c3ccc(Cl)c(Cl)c3)C2=O)cc1`, the IC50 is 13000 nM.

As for `O=C(O)CCCCCCCOc1ccc(NC(=O)c2c(O)nc3ccc(-c4csc5ccccc45)cc3c2O)cc1`, the IC50 was determined as 510 nM. On the same count and under the same terms, for `O=C(O)CCCCCCCOc1ccc(NC(=O)c2c(O)c3cc(-c4ccc5ccccc5c4)ccc3[nH]c2=O)cc1` the value was 670 nM; for `COC(=O)CCCCCCCOc1ccc(NC(=O)C2=C(O)CN(c3ccc(Cl)cc3)C2=O)cc1`, more than 50000 nM.

Molecule `COc1ccc(N2CC(O)=C(C(=O)Nc3ccc(OCCCCCCCC(=O)O)cc3)C2=O)cc1` came in with an IC50 of 3660 nM.

Turning to `O=C(O)CCCCCCCOc1ccc(NC(=O)c2c(O)nc3ccc([N+](=O)[O-])cc3c2O)cc1`, it took 3600 nM to reach half-maximal inhibition (IC50).

`O=C(O)CCCCCCCOc1ccc(NC(=O)C2=C(O)CN(c3ccc4ccccc4c3)C2=O)cc1`: the IC50 was determined as 4000 nM. Same read-out and setting: then `Cc1ccc(N2CC(O)=C(C(=O)Nc3ccc(OCCCCCCCC(=O)O)cc3)C2=O)cc1`, with 1950 nM; and `O=C(O)CCCCCCCOc1ccc(NC(=O)c2c(O)c3c(Cl)cccc3[nH]c2=O)cc1`, with 3000 nM. Regarding `O=C(O)CCCCCCCOc1ccc(NC(=O)c2c(O)c3cc(-c4ccc(Cl)cc4)ccc3[nH]c2=O)cc1`, half-maximal inhibition (IC50) required 2000 nM. Molecule `O=C(O)CCCCCCCOc1ccc(NC(=O)c2c(O)c3c(I)cccc3[nH]c2=O)cc1` registered an IC50 of 7000 nM.

`O=C(O)CCCCCCCOc1ccc(NC(=O)C2=C(O)CN(c3ccccc3)C2=O)cc1` returned an IC50 of 21000 nM. Still for that read-out and setting: then `Nc1ccc2c(O)c(C(=O)Nc3ccc(OCCCCCCCC(=O)O)cc3)c(O)nc2c1`, with more than 30000 nM; and `O=C(O)CCCCCCCOc1ccc(NC(=O)c2c(O)c3c([N+](=O)[O-])cccc3[nH]c2=O)cc1`, with 7900 nM; and `CCCCCc1ccc2[nH]c(=O)c(C(=O)Nc3ccc(OCCCCCCCC(=O)O)cc3)c(O)c2c1`, with 1800 nM. Still for that read-out and setting: then `O=C(O)CCCCCCCOc1ccc(NC(=O)c2c(O)c3ccc(C(F)(F)F)cc3[nH]c2=O)cc1`, with 1030 nM. Same read-out and setting: for `O=C(O)CCCCCCCOc1ccc(NC(=O)C2=C(O)CN(c3ccc(Br)cc3)C2=O)cc1` the value was 1990 nM; for `O=C(O)CCCCCCCOc1ccc(NC(=O)c2c(O)c3cc(F)ccc3[nH]c2=O)cc1`, 4900 nM; for `Nc1cccc2nc(O)c(C(=O)Nc3ccc(OCCCCCCCC(=O)O)cc3)c(O)c12`, 4250 nM. In turn, `COc1cc2[nH]c(=O)c(C(=O)Nc3ccc(OCCCCCCCC(=O)O)cc3)c(O)c2cc1OC` yielded an IC50 of 1650 nM. `COC(=O)c1cccc(N2CC(O)=C(C(=O)Nc3ccc(OCCCCCCCC(=O)O)cc3)C2=O)c1` displayed an IC50 of 17900 nM. Still for that read-out and setting: then `O=C(Nc1ccc(OCCCCCCCn2cnnn2)cc1)C1=C(O)CN(c2ccc(Cl)cc2)C1=O`, with 690 nM; and `O=C(O)CCCCCCCOc1ccc(NC(=O)C2=C(O)CN(c3ccccc3Cl)C2=O)cc1`, with more than 50000 nM; and `CC(=O)Nc1ccc(N2CC(O)=C(C(=O)Nc3ccc(OCCCCCCCC(=O)O)cc3)C2=O)cc1`, with more than 50000 nM. `CC(C)c1ccc(N2CC(O)=C(C(=O)Nc3ccc(OCCCCCCCC(=O)O)cc3)C2=O)cc1` registered an IC50 of 2350 nM. With `O=C(O)CCCCCCCOc1ccc(NC(=O)C2=C(O)CN(c3cccc4ccccc34)C2=O)cc1`, the IC50 is more than 50000 nM.

The molecule `O=C(O)CCCCCCCOc1ccc(NC(=O)c2c(O)c3ccc(-c4ccc5ccccc5c4)cc3[nH]c2=O)cc1` gave an IC50 of 600 nM. On the same count and under the same terms, for `O=C(O)CCCCCCCOc1ccc(NC(=O)C2=C(O)CN(c3ccc(N4CCOCC4)cc3)C2=O)cc1` the value was more than 50000 nM; for `O=C(O)CCCCCCCOc1ccc(NC(=O)C2=C(O)CN(c3ccc([N+](=O)[O-])cc3)C2=O)cc1`, 4250 nM; for `O=C(O)CCCCCCCOc1ccc(NC(=O)c2c(O)nc3cc(F)c(F)cc3c2O)cc1`, 2350 nM.

The target of the next assay is T1, Plasminogen activator inhibitor 1. In words: Inhibitory activity against human plasminogen activator inhibitor-1 (PAI-1) evaluated by complex assay.
Molecule `O=C(Nc1ccc(OCCCCCCCn2cnnn2)cc1)c1c(O)c2cc(-c3cc4ccccc4s3)ccc2[nH]c1=O` had an IC50 of 290 nM.

On to `O=C(O)CCCCCCCOc1ccc(/C=c2/[nH]c(=O)/c(=C/c3ccc(NC(=O)c4cccs4)cc3)[nH]c2=O)cc1`, for which the IC50 amounted to 510 nM.

`Cc1ccc(N2CC(O)=C(C(=O)Nc3ccc(OCCCCCCCn4cnnn4)cc3)C2=O)cc1` displayed an IC50 of 830 nM.

Take `O=C(O)CCCCCCCOc1ccc(NC(=O)c2c(O)nc3ccc(-c4csc5ccccc45)cc3c2O)cc1`: the IC50 was determined as 940 nM. Same read-out and setting: for `O=C(Nc1ccc(OCCCCCCCn2cnnn2)cc1)C1=C(O)CN(c2ccc(Cl)cc2)C1=O` the value was 300 nM.
